Assay results taken from ChEMBL document CHEMBL3727342, “Compounds and methods for kinase modulation, and indications therefor” (2012).

What was measured:
[1] = molecular target: Serine/threonine-protein kinase B-raf (Homo sapiens, UniProt P15056, V600E); assay: Inhibition of B-raf V600E mutant (unknown origin) expressed in Sf9 cells using biotin-MEK1substrate incubated for 1 hr
[2] = molecular target: Vascular endothelial growth factor receptor 2 (Homo sapiens, UniProt P35968); assay: Inhibition of KDR (unknown origin) by FRET assay
[3] = molecular target: Proto-oncogene tyrosine-protein kinase Src (Homo sapiens, UniProt P12931); assay: Inhibition of Src (unknown origin) expressed in Escherichia coli using biotin-(E4Y)3 substrate
[4] = molecular target: RAF proto-oncogene serine/threonine-protein kinase (Homo sapiens, UniProt P04049); assay: Inhibition of human C-raf using biotin-MEK1 substrate incubated for 1 hr
[5] = molecular target: T1, Tyrosine-protein kinase Tec (Homo sapiens, UniProt P42680); assay: Inhibition of TEC (unknown origin)
T1 sequence (P42680 whole entry): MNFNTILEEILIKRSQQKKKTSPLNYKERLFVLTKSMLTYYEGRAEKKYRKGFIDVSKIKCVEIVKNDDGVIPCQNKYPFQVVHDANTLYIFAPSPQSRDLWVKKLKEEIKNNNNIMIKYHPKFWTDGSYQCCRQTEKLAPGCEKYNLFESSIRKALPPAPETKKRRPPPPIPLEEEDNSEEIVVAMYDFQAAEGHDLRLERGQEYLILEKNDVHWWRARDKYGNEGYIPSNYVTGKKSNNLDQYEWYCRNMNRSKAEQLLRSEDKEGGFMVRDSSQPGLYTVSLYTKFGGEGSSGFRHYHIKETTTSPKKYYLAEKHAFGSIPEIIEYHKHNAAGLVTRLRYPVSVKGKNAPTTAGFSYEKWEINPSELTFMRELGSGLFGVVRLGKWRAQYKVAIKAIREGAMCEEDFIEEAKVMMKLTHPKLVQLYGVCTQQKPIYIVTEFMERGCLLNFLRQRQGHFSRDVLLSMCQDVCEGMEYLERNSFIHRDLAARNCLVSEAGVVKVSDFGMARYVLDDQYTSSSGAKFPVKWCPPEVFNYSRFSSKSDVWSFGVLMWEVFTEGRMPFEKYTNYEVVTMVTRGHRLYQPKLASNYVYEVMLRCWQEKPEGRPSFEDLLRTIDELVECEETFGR

[6] = molecular target: Mast/stem cell growth factor receptor Kit (Homo sapiens, UniProt P10721); assay: Inhibition of Kit (unknown origin) expressed in Escherichia coli
[7] = molecular target: High affinity nerve growth factor receptor (Homo sapiens, UniProt P04629); assay: Inhibition of TrkA (unknown origin)
[8] = molecular target: T2, Serine/threonine-protein kinase A-Raf (Homo sapiens, UniProt P10398); assay: Inhibition of A-Raf (unknown origin)
T2 sequence (P10398 whole entry): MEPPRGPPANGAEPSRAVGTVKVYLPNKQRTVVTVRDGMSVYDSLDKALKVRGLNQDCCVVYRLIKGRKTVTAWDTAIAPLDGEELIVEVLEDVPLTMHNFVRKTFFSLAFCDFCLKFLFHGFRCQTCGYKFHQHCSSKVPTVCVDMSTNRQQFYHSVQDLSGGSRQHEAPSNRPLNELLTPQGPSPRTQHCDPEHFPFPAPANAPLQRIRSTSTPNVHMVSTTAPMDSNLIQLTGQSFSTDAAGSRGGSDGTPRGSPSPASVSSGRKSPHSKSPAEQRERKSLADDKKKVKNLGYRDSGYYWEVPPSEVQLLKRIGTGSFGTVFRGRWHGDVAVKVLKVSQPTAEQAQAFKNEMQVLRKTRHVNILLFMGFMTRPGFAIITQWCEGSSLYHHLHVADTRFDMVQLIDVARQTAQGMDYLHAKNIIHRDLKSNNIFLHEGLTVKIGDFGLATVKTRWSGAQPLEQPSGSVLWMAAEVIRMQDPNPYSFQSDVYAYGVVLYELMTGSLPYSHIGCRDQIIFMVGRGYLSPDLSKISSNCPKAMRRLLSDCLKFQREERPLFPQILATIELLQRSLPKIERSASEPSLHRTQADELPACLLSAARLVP

[9] = molecular target: Serine/threonine-protein kinase B-raf (Homo sapiens, UniProt P15056); assay: Inhibition of N-terminal GST-tagged human recombinant B-Raf (416 to end residues) using biotin-MEK1 substrate incubated for 1 hr
[10] = molecular target: Tyrosine-protein kinase BTK (Homo sapiens, UniProt Q06187); assay: Inhibition of Btk (unknown origin) by FRET assay

Measured: IC50

Sequence of RAF proto-oncogene serine/threonine-protein kinase (P04049 whole entry): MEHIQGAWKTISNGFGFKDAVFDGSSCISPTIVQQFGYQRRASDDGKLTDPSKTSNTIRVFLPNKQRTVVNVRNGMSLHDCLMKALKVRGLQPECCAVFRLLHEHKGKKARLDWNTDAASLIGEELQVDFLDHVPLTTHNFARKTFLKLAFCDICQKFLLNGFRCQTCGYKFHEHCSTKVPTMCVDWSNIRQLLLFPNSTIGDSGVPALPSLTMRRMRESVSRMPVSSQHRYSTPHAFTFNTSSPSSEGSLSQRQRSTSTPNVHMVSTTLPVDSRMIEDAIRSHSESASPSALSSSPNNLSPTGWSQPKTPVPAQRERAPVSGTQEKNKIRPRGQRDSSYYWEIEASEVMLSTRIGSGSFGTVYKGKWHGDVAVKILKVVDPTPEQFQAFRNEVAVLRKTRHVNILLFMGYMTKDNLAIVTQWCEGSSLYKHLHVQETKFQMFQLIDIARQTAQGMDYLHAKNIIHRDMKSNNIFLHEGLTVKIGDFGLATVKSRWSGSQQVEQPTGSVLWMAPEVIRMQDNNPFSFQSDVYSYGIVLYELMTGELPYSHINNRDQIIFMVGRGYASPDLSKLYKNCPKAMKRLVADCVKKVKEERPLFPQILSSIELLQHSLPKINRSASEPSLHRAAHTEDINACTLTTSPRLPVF
Sequence of Vascular endothelial growth factor receptor 2 (P35968 whole entry): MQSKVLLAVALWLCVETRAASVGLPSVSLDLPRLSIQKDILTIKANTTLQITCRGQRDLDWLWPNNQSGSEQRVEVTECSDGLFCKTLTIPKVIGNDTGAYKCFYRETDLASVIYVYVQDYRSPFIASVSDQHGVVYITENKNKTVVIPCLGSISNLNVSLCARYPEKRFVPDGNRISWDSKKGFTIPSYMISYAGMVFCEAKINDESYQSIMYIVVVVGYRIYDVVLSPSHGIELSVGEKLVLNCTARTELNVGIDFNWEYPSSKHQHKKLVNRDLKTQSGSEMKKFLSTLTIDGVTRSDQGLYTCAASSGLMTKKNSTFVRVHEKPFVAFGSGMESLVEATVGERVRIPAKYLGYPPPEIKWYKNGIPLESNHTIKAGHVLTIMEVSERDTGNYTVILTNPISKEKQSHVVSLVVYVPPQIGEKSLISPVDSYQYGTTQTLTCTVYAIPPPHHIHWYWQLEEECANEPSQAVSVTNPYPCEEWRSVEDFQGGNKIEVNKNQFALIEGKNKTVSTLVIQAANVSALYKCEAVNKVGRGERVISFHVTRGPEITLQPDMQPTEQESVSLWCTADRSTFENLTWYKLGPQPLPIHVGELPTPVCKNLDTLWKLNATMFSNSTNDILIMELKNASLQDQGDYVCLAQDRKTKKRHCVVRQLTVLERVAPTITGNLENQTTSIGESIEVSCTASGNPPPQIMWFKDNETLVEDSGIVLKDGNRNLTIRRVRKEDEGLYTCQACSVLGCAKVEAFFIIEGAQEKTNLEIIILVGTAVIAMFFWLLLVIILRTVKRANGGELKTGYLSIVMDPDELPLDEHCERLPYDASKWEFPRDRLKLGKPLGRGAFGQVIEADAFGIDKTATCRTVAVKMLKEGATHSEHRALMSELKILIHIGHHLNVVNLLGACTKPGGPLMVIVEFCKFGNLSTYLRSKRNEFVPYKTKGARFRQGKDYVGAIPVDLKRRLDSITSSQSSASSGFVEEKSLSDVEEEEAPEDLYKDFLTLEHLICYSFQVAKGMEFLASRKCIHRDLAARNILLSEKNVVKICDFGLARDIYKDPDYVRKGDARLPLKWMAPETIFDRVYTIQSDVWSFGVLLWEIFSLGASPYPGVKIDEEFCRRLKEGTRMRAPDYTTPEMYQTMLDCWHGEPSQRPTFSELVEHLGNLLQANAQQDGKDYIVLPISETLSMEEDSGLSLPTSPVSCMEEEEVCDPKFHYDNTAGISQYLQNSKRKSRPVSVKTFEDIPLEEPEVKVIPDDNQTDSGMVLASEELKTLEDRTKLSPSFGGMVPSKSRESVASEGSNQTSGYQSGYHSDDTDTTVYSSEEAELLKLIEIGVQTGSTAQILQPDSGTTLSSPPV
Sequence of Serine/threonine-protein kinase B-raf (Homo sapiens, UniProt P15056, V600E) (P15056 2-766 V600E limits assumed): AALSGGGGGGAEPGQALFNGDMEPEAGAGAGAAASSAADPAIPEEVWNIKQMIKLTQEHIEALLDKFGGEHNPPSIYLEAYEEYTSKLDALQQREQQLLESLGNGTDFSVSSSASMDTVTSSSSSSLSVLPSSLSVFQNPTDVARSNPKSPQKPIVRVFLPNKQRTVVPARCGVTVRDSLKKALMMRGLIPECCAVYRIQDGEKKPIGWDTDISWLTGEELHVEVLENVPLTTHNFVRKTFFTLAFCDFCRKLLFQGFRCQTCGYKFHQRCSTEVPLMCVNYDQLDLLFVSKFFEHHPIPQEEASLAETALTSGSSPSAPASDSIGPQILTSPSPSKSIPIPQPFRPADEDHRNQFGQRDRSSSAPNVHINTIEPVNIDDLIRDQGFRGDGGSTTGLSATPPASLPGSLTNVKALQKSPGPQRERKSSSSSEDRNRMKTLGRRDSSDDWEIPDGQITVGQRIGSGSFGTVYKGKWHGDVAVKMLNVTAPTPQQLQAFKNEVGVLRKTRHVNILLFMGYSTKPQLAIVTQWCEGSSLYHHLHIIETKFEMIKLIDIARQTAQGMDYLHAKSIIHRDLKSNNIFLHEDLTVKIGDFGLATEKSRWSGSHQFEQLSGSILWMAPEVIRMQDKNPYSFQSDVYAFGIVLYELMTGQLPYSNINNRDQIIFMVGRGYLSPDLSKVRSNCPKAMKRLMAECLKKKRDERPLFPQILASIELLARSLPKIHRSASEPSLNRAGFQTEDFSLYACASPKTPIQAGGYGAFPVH
Sequence of Mast/stem cell growth factor receptor Kit (P10721 whole entry): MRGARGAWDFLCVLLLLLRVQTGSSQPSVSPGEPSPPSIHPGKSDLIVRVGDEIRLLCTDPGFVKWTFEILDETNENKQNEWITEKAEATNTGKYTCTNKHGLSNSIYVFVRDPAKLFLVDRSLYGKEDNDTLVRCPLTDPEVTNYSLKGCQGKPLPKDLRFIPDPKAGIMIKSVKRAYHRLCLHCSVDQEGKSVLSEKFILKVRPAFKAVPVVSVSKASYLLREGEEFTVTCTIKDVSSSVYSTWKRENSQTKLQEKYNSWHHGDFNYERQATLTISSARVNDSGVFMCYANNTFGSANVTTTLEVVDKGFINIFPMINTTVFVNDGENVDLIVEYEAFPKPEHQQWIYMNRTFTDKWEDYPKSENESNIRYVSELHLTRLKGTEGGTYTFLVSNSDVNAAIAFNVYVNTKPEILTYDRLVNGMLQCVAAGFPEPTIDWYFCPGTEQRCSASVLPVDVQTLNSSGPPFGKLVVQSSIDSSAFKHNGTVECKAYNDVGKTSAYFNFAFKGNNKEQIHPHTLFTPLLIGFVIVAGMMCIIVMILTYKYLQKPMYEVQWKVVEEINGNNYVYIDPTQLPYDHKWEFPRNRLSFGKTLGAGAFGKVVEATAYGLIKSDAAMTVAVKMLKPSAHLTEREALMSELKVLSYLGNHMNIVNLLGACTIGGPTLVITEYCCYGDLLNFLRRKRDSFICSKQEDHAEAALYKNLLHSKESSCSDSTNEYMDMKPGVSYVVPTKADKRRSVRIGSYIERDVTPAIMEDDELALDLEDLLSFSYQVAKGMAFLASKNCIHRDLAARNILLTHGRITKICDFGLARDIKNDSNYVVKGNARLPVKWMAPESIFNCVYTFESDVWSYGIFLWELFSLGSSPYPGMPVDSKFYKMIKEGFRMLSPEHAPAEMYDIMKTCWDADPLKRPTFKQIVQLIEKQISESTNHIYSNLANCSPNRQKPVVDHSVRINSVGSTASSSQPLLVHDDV
Sequence of Proto-oncogene tyrosine-protein kinase Src (P12931 2-536 limits assumed): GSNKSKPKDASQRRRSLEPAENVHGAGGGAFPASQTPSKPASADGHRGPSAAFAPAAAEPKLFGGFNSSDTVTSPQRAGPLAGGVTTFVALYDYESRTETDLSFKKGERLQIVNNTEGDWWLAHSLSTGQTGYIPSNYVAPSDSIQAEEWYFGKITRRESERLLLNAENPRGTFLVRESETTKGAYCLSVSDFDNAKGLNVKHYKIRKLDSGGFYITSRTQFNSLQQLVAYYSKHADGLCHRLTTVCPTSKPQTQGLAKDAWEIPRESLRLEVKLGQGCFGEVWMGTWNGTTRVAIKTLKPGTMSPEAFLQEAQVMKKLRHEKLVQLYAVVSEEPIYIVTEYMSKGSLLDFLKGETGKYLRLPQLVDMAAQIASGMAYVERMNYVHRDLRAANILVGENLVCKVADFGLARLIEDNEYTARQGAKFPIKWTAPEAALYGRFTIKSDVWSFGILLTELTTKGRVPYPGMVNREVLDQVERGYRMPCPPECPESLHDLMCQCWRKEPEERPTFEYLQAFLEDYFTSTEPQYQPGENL
Sequence of Serine/threonine-protein kinase B-raf (Homo sapiens, UniProt P15056) (P15056 whole entry): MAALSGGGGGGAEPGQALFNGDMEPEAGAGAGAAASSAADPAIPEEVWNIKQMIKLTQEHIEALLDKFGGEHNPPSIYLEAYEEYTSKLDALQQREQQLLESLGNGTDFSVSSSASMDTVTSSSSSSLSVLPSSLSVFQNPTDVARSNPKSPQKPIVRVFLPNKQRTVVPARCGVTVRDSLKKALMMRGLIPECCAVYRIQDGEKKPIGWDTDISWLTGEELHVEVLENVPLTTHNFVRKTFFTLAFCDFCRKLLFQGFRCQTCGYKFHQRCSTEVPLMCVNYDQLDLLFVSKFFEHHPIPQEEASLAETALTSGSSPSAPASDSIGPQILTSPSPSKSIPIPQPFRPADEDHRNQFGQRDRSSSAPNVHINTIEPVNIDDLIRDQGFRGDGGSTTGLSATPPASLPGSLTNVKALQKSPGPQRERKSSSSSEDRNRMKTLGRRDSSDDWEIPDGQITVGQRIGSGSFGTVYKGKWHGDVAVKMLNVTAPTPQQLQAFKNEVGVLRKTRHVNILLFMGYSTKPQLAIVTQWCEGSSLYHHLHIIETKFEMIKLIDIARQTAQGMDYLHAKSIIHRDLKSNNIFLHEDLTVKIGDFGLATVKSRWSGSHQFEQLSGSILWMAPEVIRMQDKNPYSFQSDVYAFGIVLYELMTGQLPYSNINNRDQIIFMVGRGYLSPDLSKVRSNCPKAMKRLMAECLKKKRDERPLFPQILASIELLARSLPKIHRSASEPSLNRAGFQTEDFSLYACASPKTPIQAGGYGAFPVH

O=C(c1c(F)ccc(NS(=O)(=O)c2ccc(C(F)(F)F)cc2)c1F)c1c[nH]c2ncncc12
≤ 10 µM: [1] | [2] | [3] | [4] | [5]

O=C(c1cccc(NS(=O)(=O)N2CCOCC2)c1F)c1c[nH]c2ncncc12
≤ 10 µM: [6] | [7] | [1] | [4]

CCCS(=O)(=O)Nc1ccc(F)c(C(=O)c2c[nH]c3ncncc23)c1F
≤ 10 µM: [8] | [4] | [9] | [5]

O=C(c1cccc(NS(=O)(=O)c2c(F)cccc2F)c1F)c1c[nH]c2ncncc12
≤ 10 µM: [6] | [10] | [2] | [3] | [4] | [9]
